{"source": "patent US6015838A", "about": "“Aqueous film-forming foam compositions” (3M Innovative Properties Company, priority 1996, dated 2000)", "key": {"[1]": {"experiment": "Thermal degradation in aqueous media", "assay_type": "physicochemical", "experimental": "The thermal degradation of an aqueous a-branched perfluoroalkylcarbonyl fluoride and the characterization of the products produced from the degradation were carried out using the following procedure. 8 g of C7 F15 CF(CF3)COF (made as in Example A4) was dispersed in deionized water and was refluxed for 2 hours. 5.7 g of volatile degradation products were then collected by azeotropic distillation using a Dean-Stark apparatus.\nThe thermal degradation of C7 F15 CF(CF3)COF (from Example A4) dispersed in water was also carried out by heating the aqueous mixture for several hours at approximately 80° C."}, "[2]": {"experiment": "Stability of esters to concentrated aqueous ammonium hydroxide", "assay_type": "physicochemical", "conditions": "stirred 2 days (comparable conditions)", "excerpt": "The acrylate and methacrylate esters from Examples D1-D11 were fully recoverable with essentially no degradation after being stirred with concentrated aqueous ammonium hydroxide for a period of 2 days."}, "[3]": {"experiment": "Thermogravimetric analysis of neat perfluorocarboxylate salts", "assay_type": "physicochemical", "conditions": "neat salt; for onset temperature of decomposition / temperature for 50% loss / temperature for 90% loss: 10° C./min, nitrogen", "excerpt": "Thermal degradation measurements were made on a series of neat perfluorocarboxylate salts, including several ax-branched open chain structures (Examples N2-N9), a primarily linear open chain structure (Example N10--Fluorad™ FC-143 Fluorochemical Surfactant, commercially available from 3M Company, St. Paul, Minn.), and a closed chain (i.e., cyclic) structure (Example N11--made by the electrochemical fluorination of benzoic acid and hydrolysis in the presence of KOH, as described in U.S. Pat. No. 2,567,011 (Diesslin et al.)).\nThe perfluorocarboxylate salts were tested using a Perkin-Elmer TGA 7 thermogravimetric analysis apparatus and a salt sample size of approximately 5 mg, a heating rate of 10° C./min, and a nitrogen gas flow rate of 40-45 mL/min. Using the TGA 7 software, the following temperatures were recorded: (1) the onset temperature of decomposition, (2) the temperature at which 50% of the sample weight was lost, and (3) the temperature at which 90% of the sample weight was lost."}, "[4]": {"experiment": "Storage of 5% aqueous solution at room temperature", "assay_type": "physicochemical", "protocol": "The α-branched open chain ammonium salt compounds from Examples N3-N6 were dissolved in deionized water at a concentration of 5% by weight (0.5 g ammonium salt in 10 mL water) and were stored at room temperature."}, "[5]": {"experiment": "Surface tension and critical micelle concentration (CMC) of aqueous surfactant solutions", "assay_type": "physicochemical", "conditions": "Table 5; deionized water, at CMC", "excerpt": "Critical Micelle Concentration (CMC): The critical micelle concentration is defined as the concentration at which further surface tension is no longer lowered with increasing levels of surfactant. […] Surface tension is then plotted vs. log concentration and the data points are connected. The resulting curve has a nearly horizontal flat portion at concentrations above the CMC and has a negative steep slope at concentrations below the CMC. The CMC is defined as the lowest surfactant concentration in the horizontal flat portion of the curve.\n(§1) Then the critical micelle concentration (CMC) was determined for each surfactant.\nas §1"}, "[6]": {"tested_on": "rats", "experiment": "Acute LD50, one-time feeding study of rats", "assay_type": "in vivo, rat", "protocol": "Acute LD50 measurements for a one-time feeding study of rats were determined over a 21 day period for both the a-branched perfluorocarboxylate salt, C7 F15 CF(CF3)COO^- NH4^+, and its straight chain isomer, CF3 (CF2)8 COO^- NH4^+."}, "[7]": {"conditions": "literature; cited from earlier work"}, "[8]": {"experiment": "Emulsion polymerization of hexafluoropropylene and vinylidene fluoride with surfactant as emulsifier", "conditions": "3500 ppm emulsifier, 78° C.", "excerpt": "The following procedure was used to evaluate C7 F15 CF(CF3)COO^- NH4^+ (from Ex. M1) as an emulsifier to copolymerize hexafluoropropylene (HFP) and vinylidene fluoride.\nA 1 gallon, vertically agitated stainless steel reactor with pressure and temperature controls was evacuated and twice purged with nitrogen. Using an isolated vacuum, a solution comprised of 2 g of ammonium persulfate (initiator) and 6 g of dipotassium phosphate dissolved in 2800 g of deionized water was introduced into the reactor. The remaining vacuum on the reactor was vented with nitrogen, and the solution was degassed twice under agitation using alternate vacuum and nitrogen purges. […]\nThe resulting latex polymer was drained from the reactor, and percent solids of the latex was determined to be 25% by weight as measured by drying 10 g of latex in a forced air oven for 16 hours at 105° C.\nThe reactor body was separated from the reactor head, and a visual inspection of the reactor was made to determine the amount of coagulated polymer in the reactor (the amount should be minimal in a good polymerization reaction). A qualitative rating was assessed, ranging from \"none\" to \"little\" to \"some.\" […]\nParticle size in the latex was determined using […] on a Coulter sub-micron particle size analyzer. […]"}, "[9]": {"tested_on": "rats", "experiment": "Monitoring of volatile degradation products exhaled by a dosed rat (uptake desiccator jar chamber)", "assay_type": "in vivo", "protocol": "Additional biological testing of C7F15 CF(CF3)COO^- NH4^+ in rats was conducted using the following test apparatus. An uptake desiccator jar chamber was designed with top and bottom portions, the top portion equipped with an inlet port, an outlet port, oxygen monitor and pressure gage. An oxygen gas tank supplied oxygen into the inlet port, and the oxygen level in the chamber was maintained at a normal ambient level as measured by the oxygen monitor and pressure gage. The outlet port was connected in series with a carbon dioxide scrubber and particulate filter, which in turn was connected to a loop containing a stainless steel bellows pump operating at about 2 L/min. Most of the gas in the loop was recycled into the inlet port, but about 100 mL/min was directed through a secondary loop to a gas chromatograph equipped with a 0.5 mL gas sampling loop.\nA rat dosed at 500 mg/kg was placed in the bottom portion of the chamber, the top portion was attached, and the assembled chamber was placed in an ice-filled pan to allow for the condensation of water. The oxygen flow was started, and the exhaust gases were monitored for the presence of CF3 CF=CF(C6 F13) and C7 F15 CFHCF3, aqueous degradation products of C7 F15 CF(CF3)COOH, using known standards of this olefin and hydride in the gas chromatograph. […] After 24 minutes, one slight chromatographic peak was noted, corresponding to the monohydride. After 92 minutes, the peak became noticeably larger and a second peak formed, corresponding to the olefin."}}, "note": "Entries after “also recorded” stand apart in the source; their conditions may differ.", "data": [{"smiles": "O=C(O)C(F)(C(F)(F)F)C(F)(F)C(F)(F)C(F)(F)C(F)(F)C(F)(F)C(F)(F)C(F)(F)F", "note": "(stereo not shown) [Example M1, C7 F15 CF(CF3)COOH]", "values": [{"measurement": "degradation products (in words)", "setting": "[1]; aqueous solution, carried out in a similar way", "value": "the same monohydride and olefin"}]}, {"smiles": "C=CC(=O)OCCOC(=O)C(F)(F)C(F)(F)C(F)(F)C(F)(F)C(F)(F)C(F)(F)C(F)(F)F", "note": "[C7 F15 COOCH2 CH2 OCOCH=CH2]", "values": [{"measurement": "hydrolytic stability in concentrated aqueous ammonium hydroxide", "setting": "[2]", "value": "readily hydrolyzed"}]}, {"smiles": "O=C(F)C(F)(C(F)(F)F)C(F)(F)C(F)(F)C(F)(F)C(F)(F)C(F)(F)C(F)(F)C(F)(F)F", "note": "(stereo not shown) [Example A1, C7 F15 CF(CF3)COF]", "values": [{"measurement": "degradation products (in words)", "setting": "[1]; aqueous mixture heated several hours at approximately 80° C.", "value": "The same volatile products were formed"}, {"measurement": "olefin in degradation products", "setting": "[1]; dispersed in deionized water, refluxed 2 hours, C6 F13 CF=CFCF3", "value": 15, "unit": "%"}, {"measurement": "monohydride in degradation products", "setting": "[1]; dispersed in deionized water, refluxed 2 hours, C7 F15 CFHCF3", "value": 85, "unit": "%"}, {"measurement": "volatile degradation products collected", "setting": "[1]; from 8 g, refluxed 2 hours in deionized water", "value": 5.7, "unit": "g"}]}, {"smiles": "O=C(O)C(F)(F)C(F)(F)C(F)(F)C(F)(F)C(F)(F)C(F)(F)C(F)(F)F", "note": "[FC-143, C7 F15 COO^- H4 N^+]", "values": [{"measurement": "onset temperature of decomposition", "setting": "[3]", "value": 173, "unit": "°C"}, {"measurement": "temperature for 50% loss", "setting": "[3]", "value": 188, "unit": "°C"}, {"measurement": "temperature for 90% loss", "setting": "[3]", "value": 202, "unit": "°C"}, {"measurement": "degradation over 1 year (in words)", "setting": "[4]", "value": "no signs of degradation"}, {"measurement": "Surf. Tens. (surface tension at the CMC)", "setting": "[5]", "value": 21.5, "unit": "dynes/cm"}]}, {"smiles": "O=C(O)C(F)(F)C(F)(F)C(F)(F)C(F)(F)C(F)(F)C(F)(F)C(F)(F)C(F)(F)C(F)(F)F", "note": "[C9 F19 COO^- NH4^+, CF3 (CF2)8 COO^- NH4^+, reference compound]", "values": [{"measurement": "toxicity relative to the α-branched isomer", "setting": "[6]; LD50 comparison", "value": "ca. 10 times"}, {"measurement": "acute toxicity (in words)", "setting": "[6]; one-time feeding, rats", "value": "moderately toxic"}, {"measurement": "wasting syndrome", "setting": "[6]; one-time feeding, rats", "value": "Wasting syndrome was observed"}, {"measurement": "toxicity (in words)", "setting": "[7]", "value": "moderately toxic"}]}, {"smiles": "O=C(O)C(F)(C(F)(F)F)C(F)(F)C(F)(F)C(F)(F)C(F)(F)C(F)(F)F", "note": "(stereo not shown) [Example M21, C5 F11 CF(CF3)COO^- K^+]", "values": [{"measurement": "onset temperature of decomposition", "setting": "[3]; listed as N9", "value": 167, "unit": "°C"}, {"measurement": "temperature for 50% loss", "setting": "[3]; listed as N9", "value": 178, "unit": "°C"}, {"measurement": "temperature for 90% loss (stopped at 85% weight loss)", "setting": "[3]; stopped at 85% weight loss as remaining salt, KF, is not volatile", "value": 188, "unit": "°C"}, {"measurement": "Surf. Tens. (surface tension at the CMC)", "setting": "[5]", "value": 22.5, "unit": "dynes/cm"}]}, {"smiles": "O=C(O)C(F)(C(F)(F)F)C(F)(F)C(F)(F)C(F)(F)C(F)(F)C(F)(F)C(F)(F)C(F)(F)F", "note": "(stereo not shown) [Example M14, C7 F15 CF(CF3)COO^- H4 N^+]", "values": [{"measurement": "onset temperature of decomposition", "setting": "[3]", "value": 151, "unit": "°C"}, {"measurement": "temperature for 50% loss", "setting": "[3]", "value": 163, "unit": "°C"}, {"measurement": "temperature for 90% loss", "setting": "[3]", "value": 174, "unit": "°C"}, {"measurement": "Latex Stability", "setting": "[8]", "value": 0}, {"measurement": "time after which rats began regaining weight", "setting": "[6]; one-time feeding, rats", "value": 3, "unit": "days"}, {"measurement": "time of deaths from toxic doses", "setting": "[6]; one-time feeding, rats", "value": "2 to 3", "unit": "days"}, {"measurement": "wasting syndrome", "setting": "[6]; one-time feeding, rats", "value": "No wasting syndrome was noted"}, {"measurement": "acute toxicity (in words)", "setting": "[6]; one-time feeding, rats, listed as C7 F15 CF(CF3)COO^- NH4^+", "value": "relatively low toxicity; also recorded: only slightly toxic"}, {"measurement": "post-exposure toxicity (death) or wasting syndrome", "setting": "[9]; rat dosed at 500 mg/kg", "value": "no evidence of toxicity (death) or evidence of wasting syndrome"}, {"measurement": "time at which monohydride peak was noted in exhaust gases", "setting": "[9]; rat dosed at 500 mg/kg", "value": 24, "unit": "min"}, {"measurement": "time at which second peak (olefin) formed in exhaust gases", "setting": "[9]; rat dosed at 500 mg/kg", "value": 92, "unit": "min"}, {"measurement": "monohydride and olefin peaks in exhaust gases after 217 minutes", "setting": "[9]; rat dosed at 500 mg/kg, 217 minutes", "value": "both peaks became significantly larger"}, {"measurement": "olefin or hydride in exhaust gases, initially", "setting": "[9]; rat dosed at 500 mg/kg, initially", "value": "no olefin or hydride were detected"}, {"measurement": "metabolism and elimination", "setting": "[9]; rat, in words", "value": "metabolized by the rat to volatile metabolites which were eliminated from the rat via transpiration"}, {"measurement": "Surf. Tens. (surface tension at the CMC)", "setting": "[5]", "value": 16.5, "unit": "dynes/cm"}]}]}
